# Test results published in ChEMBL document CHEMBL1201862, “PubChem BioAssay data set” (2004).
#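 How tested: cells in 96-well plates exposed to compound for 48 hours at five concentrations. At the GI50, growth is halved.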 Active and inactive are the calls of the source. Cut-off read from the data, not from the text of the source: active = GI50 up to about 1.1 µM and inactive = higher.
# Assays:
# Assay in all cases: growth of human tumour cells (NCI), 48 h
# [1] = system: UACC-257
# [2] = system: MDA-N
# [3] = system: BT-549
# [4] = system: A498
# [5] = system: CCRF-CEM
# [6] = system: A549
# [7] = system: OVCAR-3
# [8] = system: NCI-H226
# [9] = system: RPMI-8226
# [10] = system: ACHN
# [11] = system: LOX IMVI
# [12] = system: T47D
# [13] = system: HCT-116
# [14] = system: MCF7
# [15] = system: COLO 205
# [16] = system: SNB-19
# [17] = system: SN12C
# [18] = system: SF-295
# [19] = system: HL-60
# [20] = system: NCI-H460
# [21] = system: 786-0
# [22] = system: NCI/ADR-RES
# [23] = system: SK-MEL-28
# [24] = system: U-251
# [25] = system: OVCAR-5
# [26] = system: IGROV-1
# [27] = system: Hs-578T
# [28] = system: MOLT-4
# [29] = system: TK-10
# [30] = system: OVCAR-4
# [31] = system: HCT-15
# [32] = system: UO-31
# [33] = system: SK-OV-3
# [34] = system: PC-3
# [35] = system: MDA-MB-231
# [36] = system: HOP-92
# [37] = system: KM12
# [38] = system: HCC 2998
# [39] = system: SW-620
# [40] = system: OVCAR-8
# [41] = system: NCI-H23
# [42] = system: CAKI-1
# [43] = system: RXF 393
# [44] = system: HOP-62
# [45] = system: MDA-MB-435
# [46] = system: DU-145
# [47] = system: SF-539
# [48] = system: M14
# [49] = system: Malme-3M
# [50] = system: SF-268
# [51] = system: SK-MEL-2
# [52] = system: UACC-62
# [53] = system: HT-29
# [54] = system: SK-MEL-5
# [55] = system: NCI-H522
# [56] = system: EKVX
smiles,measurement,setting,value
COc1cc2c(cc1OC)-c1cc3cc(OC)c(OC)cc3c(C)[n+]1CC2.O=C([O-])CS(=O)(=O)O,GI50,[1],15.8 µM (inactive)
same,GI50,[2],89.3 µM (inactive)
same,GI50,[3],41.7 µM (inactive)
same,GI50,[4],> 100 µM (inactive)
same,GI50,[5],6.49 µM (inactive)
same,GI50,[6],> 100 µM (inactive)
same,GI50,[7],29.1 µM (inactive)
same,GI50,[8],> 100 µM (inactive)
same,GI50,[9],> 100 µM (inactive)
same,GI50,[10],> 100 µM (inactive)
same,GI50,[11],> 100 µM (inactive)
same,GI50,[12],2.82 µM (inactive)
same,GI50,[13],73.5 µM (inactive)
same,GI50,[14],46.3 µM (inactive)
same,GI50,[15],31.6 µM (inactive)
same,GI50,[16],41.7 µM (inactive)
same,GI50,[17],37.6 µM (inactive)
same,GI50,[18],> 100 µM (inactive)
same,GI50,[19],> 100 µM (inactive)
same,GI50,[20],13.8 µM (inactive)
same,GI50,[21],> 100 µM (inactive)
same,GI50,[22],> 100 µM (inactive)
same,GI50,[23],> 100 µM (inactive)
same,GI50,[24],15 µM (inactive)
same,GI50,[25],> 100 µM (inactive)
same,GI50,[26],61.1 µM (inactive)
same,GI50,[27],> 100 µM (inactive)
same,GI50,[28],9.51 µM (inactive)
same,GI50,[29],> 100 µM (inactive)
same,GI50,[30],> 100 µM (inactive)
same,GI50,[31],> 100 µM
same,GI50,[32],> 100 µM (inactive)
same,GI50,[33],79.1 µM (inactive)
same,GI50,[34],15.9 µM (inactive)
same,GI50,[35],> 100 µM (inactive)
same,GI50,[36],95.9 µM (inactive)
same,GI50,[37],26.3 µM (inactive)
same,GI50,[38],19.3 µM (inactive)
same,GI50,[39],> 100 µM (inactive)
same,GI50,[40],> 100 µM (inactive)
same,GI50,[41],35.4 µM (inactive)
same,GI50,[42],> 100 µM (inactive)
same,GI50,[43],> 100 µM (inactive)
same,GI50,[44],> 100 µM (inactive)
same,GI50,[45],76.4 µM (inactive)
same,GI50,[46],> 100 µM (inactive)
same,GI50,[47],76.6 µM (inactive)
same,GI50,[48],> 100 µM (inactive)
same,GI50,[49],29.3 µM (inactive)
same,GI50,[50],0.975 µM (active)
same,GI50,[51],> 100 µM (inactive)
same,GI50,[52],23.2 µM (inactive)
same,GI50,[53],> 100 µM (inactive)
same,GI50,[54],37.8 µM (inactive)
same,GI50,[55],6.78 µM (inactive)
same,GI50,[56],> 100 µM (inactive)
